# Measurements from PMC4579270, “Identification and Characterization of an Irreversible Inhibitor of CDK2” (Chemistry & Biology, 2015).
# Where two headings read alike, the source gives them in different places.
# What was measured:
# Experiment in all cases: Dundee kinase screen re-test (standard format and 4 hour pre-incubation)
# Type in all cases: biochemical
# TAK1 = target: T1, TAK1 (Homo sapiens, UniProt O43318); conditions: TAK1, 0.5µM
# T1 sequence (O43318 1-303 limits assumed): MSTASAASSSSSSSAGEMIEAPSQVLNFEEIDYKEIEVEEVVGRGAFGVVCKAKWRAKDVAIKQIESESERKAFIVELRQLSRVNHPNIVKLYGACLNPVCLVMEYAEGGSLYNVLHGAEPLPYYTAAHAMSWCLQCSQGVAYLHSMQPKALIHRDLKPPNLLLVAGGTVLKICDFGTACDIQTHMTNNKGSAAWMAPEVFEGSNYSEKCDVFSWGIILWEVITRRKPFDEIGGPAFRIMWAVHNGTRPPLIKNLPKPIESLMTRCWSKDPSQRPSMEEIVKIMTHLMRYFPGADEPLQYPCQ
# Method: (§1) Prior to determining its cellular activity, we carried out a screen to assess its selectivity against a panel of 131 protein kinases under conditions that would not distinguish between a reversible or irreversible mode of action. […] These 13 kinases and 29 additional kinases, selected for their known sensitivity to other inhibitors within the purine series, were then tested in a modified screening format in which the assay was repeated following a 4-hr pre-incubation (Table S3B). […] However, conformational flexibility around the active site may promote such an interaction with a residue from another part of the structure ([Martin et al., 2012]).
# (§2) Table S3, Related to Figure 4. NCL-0006300 protein kinase selectivity. […]
# (§3) Dundee protein kinase screen (Bain et al., 2007). Values given are % activity remaining and are the average of duplicate measurements: 0-25% (red), 26-50% (yellow), 51-80% […]
# (§4) (black) and above 81% (green). […]
# (§5) (B) Selected kinases were re-tested in the Dundee kinase screen against NU6300 at a single concentration of 0.5 µM both in the standard assay format and following a 4 hour pre-incubation in the presence of NU6300. Kinases which have very low activity after the 4 hour incubation so that results might not be wholly reliable are boxed in salmon. Kinases where the activity after a 4 hour pre-incubation is < 50% that in the standard assay format are highlighted in red.
# RSK1 = RSK1 (Homo sapiens, UniProt Q15418); conditions: RSK1, 0.5µM
# Method: as §1, §2, §3, §4, §5
# Src = Src (Homo sapiens, UniProt P12931)
# Chain of Src (P12931 whole entry): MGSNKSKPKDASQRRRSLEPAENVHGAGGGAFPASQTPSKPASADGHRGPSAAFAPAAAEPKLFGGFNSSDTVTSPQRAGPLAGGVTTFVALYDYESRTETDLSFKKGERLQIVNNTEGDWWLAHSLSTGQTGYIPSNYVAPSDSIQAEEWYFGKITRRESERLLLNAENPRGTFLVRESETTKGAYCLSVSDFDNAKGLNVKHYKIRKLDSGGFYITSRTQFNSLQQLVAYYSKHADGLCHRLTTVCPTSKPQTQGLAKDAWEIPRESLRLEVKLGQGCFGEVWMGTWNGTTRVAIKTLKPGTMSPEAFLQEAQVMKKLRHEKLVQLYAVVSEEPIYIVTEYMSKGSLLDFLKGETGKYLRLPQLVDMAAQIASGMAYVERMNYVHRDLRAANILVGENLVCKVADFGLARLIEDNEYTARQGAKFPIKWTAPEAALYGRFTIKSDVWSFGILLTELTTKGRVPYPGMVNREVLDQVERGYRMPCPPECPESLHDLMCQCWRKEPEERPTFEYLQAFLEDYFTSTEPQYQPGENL
# Method: as §1, §2, §3, §4, §5
# SIK2 = SIK2 (Homo sapiens, UniProt Q9H0K1); conditions: SIK2, 0.5µM
# Chain of SIK2 (Q9H0K1 whole entry): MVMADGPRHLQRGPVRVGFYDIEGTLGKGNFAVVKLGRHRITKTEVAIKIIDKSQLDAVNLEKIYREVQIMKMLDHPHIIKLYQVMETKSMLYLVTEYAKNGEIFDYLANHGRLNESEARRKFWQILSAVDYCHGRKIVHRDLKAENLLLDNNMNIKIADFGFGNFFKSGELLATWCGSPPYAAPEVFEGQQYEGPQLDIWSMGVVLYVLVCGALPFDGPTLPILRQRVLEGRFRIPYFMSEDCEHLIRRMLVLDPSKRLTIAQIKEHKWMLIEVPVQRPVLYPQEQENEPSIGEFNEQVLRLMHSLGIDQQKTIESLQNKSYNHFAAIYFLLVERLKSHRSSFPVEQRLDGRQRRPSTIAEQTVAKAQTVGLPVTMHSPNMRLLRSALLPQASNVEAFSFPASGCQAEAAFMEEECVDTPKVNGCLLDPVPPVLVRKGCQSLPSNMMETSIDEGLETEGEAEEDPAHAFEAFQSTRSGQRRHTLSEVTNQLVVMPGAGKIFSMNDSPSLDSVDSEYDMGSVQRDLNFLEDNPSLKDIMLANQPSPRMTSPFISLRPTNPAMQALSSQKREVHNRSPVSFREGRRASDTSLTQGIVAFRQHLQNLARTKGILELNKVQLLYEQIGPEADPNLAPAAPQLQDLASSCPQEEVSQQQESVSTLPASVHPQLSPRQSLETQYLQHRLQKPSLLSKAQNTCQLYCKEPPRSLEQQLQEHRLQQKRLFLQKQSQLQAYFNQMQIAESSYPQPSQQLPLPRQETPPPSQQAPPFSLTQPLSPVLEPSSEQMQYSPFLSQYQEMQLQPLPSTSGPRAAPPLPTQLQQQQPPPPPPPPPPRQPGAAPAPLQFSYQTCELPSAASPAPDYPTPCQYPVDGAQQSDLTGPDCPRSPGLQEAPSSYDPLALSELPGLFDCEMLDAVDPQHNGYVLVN
# Method: as §1, §2, §3, §4, §5
# ROCK 2 = ROCK 2 (Homo sapiens, UniProt O75116); conditions: ROCK 2, 0.5µM
# Method: as §1, §2, §3, §4, §5
# MLK1 = MLK1 (Homo sapiens, UniProt P80192); conditions: MLK1, 0.5µM
# Method: as §1, §2
# (§6) Dundee protein kinase screen (Bain et al., 2007). […]
# as §5
# YES1 = YES1 (Homo sapiens, UniProt P07947); conditions: YES1, 0.5µM
# Chain of YES1 (P07947 whole entry): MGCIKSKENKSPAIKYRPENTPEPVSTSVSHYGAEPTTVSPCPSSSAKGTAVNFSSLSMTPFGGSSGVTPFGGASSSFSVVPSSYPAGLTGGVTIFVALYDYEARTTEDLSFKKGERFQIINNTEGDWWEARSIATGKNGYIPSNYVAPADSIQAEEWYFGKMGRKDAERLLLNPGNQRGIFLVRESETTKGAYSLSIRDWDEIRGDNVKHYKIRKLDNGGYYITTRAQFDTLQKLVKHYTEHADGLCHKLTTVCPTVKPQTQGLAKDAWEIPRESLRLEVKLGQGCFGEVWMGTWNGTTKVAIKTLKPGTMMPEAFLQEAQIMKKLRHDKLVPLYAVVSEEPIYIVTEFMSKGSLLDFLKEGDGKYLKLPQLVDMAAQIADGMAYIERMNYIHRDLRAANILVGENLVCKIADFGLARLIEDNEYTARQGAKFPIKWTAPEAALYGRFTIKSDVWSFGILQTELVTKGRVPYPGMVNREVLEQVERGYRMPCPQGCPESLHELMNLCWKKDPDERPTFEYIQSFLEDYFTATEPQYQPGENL
# Method: as §1, §2, §6, §5
# ERK8 = target: T2, ERK8 (Homo sapiens, UniProt Q8TD08); conditions: ERK8, 0.5µM
# T2 sequence (Q8TD08 1-544): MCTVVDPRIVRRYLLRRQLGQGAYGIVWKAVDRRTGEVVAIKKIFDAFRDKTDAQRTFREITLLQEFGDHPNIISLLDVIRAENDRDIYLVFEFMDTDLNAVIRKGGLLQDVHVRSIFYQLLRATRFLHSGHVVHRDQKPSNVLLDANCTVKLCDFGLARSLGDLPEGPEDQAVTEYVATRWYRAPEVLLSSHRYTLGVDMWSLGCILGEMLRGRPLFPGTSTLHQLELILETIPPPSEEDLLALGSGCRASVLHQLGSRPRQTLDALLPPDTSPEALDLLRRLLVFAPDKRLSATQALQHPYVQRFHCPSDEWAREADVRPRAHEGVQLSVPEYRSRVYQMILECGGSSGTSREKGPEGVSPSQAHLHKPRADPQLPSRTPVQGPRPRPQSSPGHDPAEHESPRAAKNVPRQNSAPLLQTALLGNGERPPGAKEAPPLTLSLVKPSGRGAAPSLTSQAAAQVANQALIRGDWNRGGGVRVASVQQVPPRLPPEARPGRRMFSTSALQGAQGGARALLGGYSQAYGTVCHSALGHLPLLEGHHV
# Method: as §1, §2, §6, §5
# BTK = BTK (Homo sapiens, UniProt Q06187)
# Chain of BTK (Q06187 whole entry): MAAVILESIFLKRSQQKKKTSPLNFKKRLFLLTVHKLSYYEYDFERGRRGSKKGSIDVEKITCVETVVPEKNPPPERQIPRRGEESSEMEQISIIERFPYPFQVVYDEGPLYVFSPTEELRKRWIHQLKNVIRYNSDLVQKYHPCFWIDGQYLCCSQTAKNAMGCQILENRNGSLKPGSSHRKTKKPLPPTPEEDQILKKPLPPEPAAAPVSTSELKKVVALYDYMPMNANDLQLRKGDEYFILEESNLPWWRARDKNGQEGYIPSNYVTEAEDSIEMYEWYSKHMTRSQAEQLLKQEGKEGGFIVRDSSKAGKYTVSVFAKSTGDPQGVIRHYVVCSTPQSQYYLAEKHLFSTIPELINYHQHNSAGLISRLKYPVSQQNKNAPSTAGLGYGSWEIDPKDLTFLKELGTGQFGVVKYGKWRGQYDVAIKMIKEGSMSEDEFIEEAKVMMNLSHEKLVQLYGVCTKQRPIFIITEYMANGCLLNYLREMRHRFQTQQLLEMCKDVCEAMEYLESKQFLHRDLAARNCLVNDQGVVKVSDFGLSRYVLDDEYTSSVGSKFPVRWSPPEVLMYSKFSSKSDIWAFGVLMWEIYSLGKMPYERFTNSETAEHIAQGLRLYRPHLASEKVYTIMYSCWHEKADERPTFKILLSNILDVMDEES
# Method: as §1, §2, §6, §5
# MLK3 = MLK3 (Homo sapiens, UniProt Q16584); conditions: MLK3, 0.5µM
# Method: as §1, §2, §6, §5
# PAK4 = PAK4 (Homo sapiens, UniProt O96013); conditions: PAK4, 0.5µM
# Chain of PAK4 (O96013 whole entry): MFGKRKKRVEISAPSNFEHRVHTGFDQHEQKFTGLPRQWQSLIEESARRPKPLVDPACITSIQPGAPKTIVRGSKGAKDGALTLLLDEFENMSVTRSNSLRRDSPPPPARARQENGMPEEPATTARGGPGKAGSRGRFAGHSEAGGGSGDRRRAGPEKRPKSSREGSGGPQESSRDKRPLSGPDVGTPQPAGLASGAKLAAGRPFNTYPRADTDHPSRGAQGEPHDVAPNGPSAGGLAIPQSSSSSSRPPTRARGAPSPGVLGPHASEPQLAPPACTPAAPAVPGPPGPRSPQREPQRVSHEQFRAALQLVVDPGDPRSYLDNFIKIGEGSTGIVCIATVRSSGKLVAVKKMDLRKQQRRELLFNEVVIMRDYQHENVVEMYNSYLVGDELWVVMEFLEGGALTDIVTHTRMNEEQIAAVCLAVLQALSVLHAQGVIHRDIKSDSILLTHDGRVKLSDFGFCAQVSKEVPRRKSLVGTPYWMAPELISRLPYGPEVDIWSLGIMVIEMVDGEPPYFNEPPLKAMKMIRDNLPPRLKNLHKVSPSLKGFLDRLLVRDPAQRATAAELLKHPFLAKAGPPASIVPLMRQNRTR
# Method: as §1, §2, §6, §5
# JAK2 = JAK2 (Homo sapiens, UniProt O60674); conditions: JAK2, 0.5µM
# Chain of JAK2 (O60674 whole entry): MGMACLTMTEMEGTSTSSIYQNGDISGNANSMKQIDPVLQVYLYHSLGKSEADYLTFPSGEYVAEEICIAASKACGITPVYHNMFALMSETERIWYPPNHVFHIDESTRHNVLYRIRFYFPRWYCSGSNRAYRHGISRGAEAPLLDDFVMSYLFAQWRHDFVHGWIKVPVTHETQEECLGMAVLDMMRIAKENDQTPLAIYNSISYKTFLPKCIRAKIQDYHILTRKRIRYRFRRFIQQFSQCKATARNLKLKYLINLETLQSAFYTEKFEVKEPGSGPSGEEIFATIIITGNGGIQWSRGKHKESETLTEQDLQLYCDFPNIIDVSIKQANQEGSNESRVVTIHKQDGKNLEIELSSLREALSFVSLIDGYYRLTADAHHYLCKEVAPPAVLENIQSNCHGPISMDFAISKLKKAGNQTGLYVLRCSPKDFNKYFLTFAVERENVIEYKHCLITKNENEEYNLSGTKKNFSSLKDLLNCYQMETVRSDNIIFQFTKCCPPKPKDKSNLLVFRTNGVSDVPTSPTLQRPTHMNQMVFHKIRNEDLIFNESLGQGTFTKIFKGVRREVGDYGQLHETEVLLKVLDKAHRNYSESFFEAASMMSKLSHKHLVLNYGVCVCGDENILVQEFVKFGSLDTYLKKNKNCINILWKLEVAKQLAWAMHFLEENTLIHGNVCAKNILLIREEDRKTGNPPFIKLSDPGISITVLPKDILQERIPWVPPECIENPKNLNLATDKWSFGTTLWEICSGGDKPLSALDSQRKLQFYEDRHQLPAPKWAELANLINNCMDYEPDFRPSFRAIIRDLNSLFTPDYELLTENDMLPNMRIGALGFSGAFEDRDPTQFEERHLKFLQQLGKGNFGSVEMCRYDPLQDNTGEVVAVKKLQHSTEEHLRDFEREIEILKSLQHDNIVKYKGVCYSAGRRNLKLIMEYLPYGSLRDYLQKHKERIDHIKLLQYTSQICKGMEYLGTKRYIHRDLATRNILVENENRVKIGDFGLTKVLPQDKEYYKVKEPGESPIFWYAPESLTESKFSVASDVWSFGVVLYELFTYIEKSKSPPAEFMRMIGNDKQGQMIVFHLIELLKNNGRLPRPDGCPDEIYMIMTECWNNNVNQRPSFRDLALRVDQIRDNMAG
# Method: as §1, §2, §6, §5
# [1] = 4hr RT preincubation, read-out: %Remaining activity at 0.5µM NU6300 - 4hr RT preincubation
# [2] = usual format, read-out: %Remaining activity at 0.5µM NU6300 - Usual assay format
compound,measurement,setting,value
"C=CS(=O)(=O)c1ccc(Nc2nc(OCC3CCCCC3)c3nc[nH]c3n2)cc1 [NU6300, 6-(cyclohexylmethoxy)-N-(4-(vinylsulfonyl)phenyl)-9H-purin-2-amine]",remaining activity at 0.5 µM,TAK1; [1],24%
same,remaining activity at 0.5 µM,TAK1; [2],19%
same,remaining activity at 0.5 µM,RSK1; [1],131%
same,remaining activity at 0.5 µM,RSK1; [2],83%
same,remaining activity at 0.5 µM,Src; [1],54%
same,remaining activity at 0.5 µM,Src; [2],48%
same,remaining activity at 0.5 µM,SIK2; [1],69%
same,remaining activity at 0.5 µM,SIK2; [2],39%
same,remaining activity at 0.5 µM,ROCK 2; [1],47%
same,remaining activity at 0.5 µM,ROCK 2; [2],46%
same,remaining activity at 0.5 µM,MLK1; [1],29%
same,remaining activity at 0.5 µM,MLK1; [2],4%
same,remaining activity at 0.5 µM,YES1; [1],135%
same,remaining activity at 0.5 µM,YES1; [2],43%
same,remaining activity at 0.5 µM,ERK8; [1],68%
same,remaining activity at 0.5 µM,ERK8; [2],20%
same,remaining activity at 0.5 µM,BTK; [1],28%
same,remaining activity at 0.5 µM,BTK; [2],18%
same,remaining activity at 0.5 µM,MLK3; [1],52%
same,remaining activity at 0.5 µM,MLK3; [2],5%
same,remaining activity at 0.5 µM,PAK4; [1],82%
same,remaining activity at 0.5 µM,PAK4; [2],34%
same,remaining activity at 0.5 µM,JAK2; [1],7%
same,remaining activity at 0.5 µM,JAK2; [2],9%
